Data on one molecule can be found in PubChem BioAssay (NCI).

The structures appear in SMILES notation.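 Five compound concentrations were applied to cells in 96-well plates for 48 hours; endpoints were derived by simple linear interpolation of the resulting dose-response curve. The concentration for full growth arrest is given as TGI.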

The experiment relates to SN12K1 renal. Briefly: inhibition of tumour cell growth, NCI panel, 48 h.

For the molecule `COc1cc(C2c3cc4c(cc3[C@@H](Nc3ccc(C#N)cc3)C3COC(=O)[C@H]23)OCO4)cc(OC)c1O` (stereo partly specified), the TGI was found to be 3.94 µM.
